Reference: ChEMBL document CHEMBL4818987, “Recent advances of podophyllotoxin/epipodophyllotoxin hybrids in anticancer activity, mode of action, and structure-activity relationship: An update (2010-2020)” (Eur J Med Chem, 2020)

Columns and labels:
K562/Adr [1] = experiment: Antiproliferative activity against human K562/ADR cells incubated for 72 hrs by CCK8 assay; assay type: functional, cell-based
K562 [2] = experiment: Antiproliferative activity against human K562 cells incubated for 72 hrs by CCK8 assay; assay type: functional, cell-based; conditions: K562, 72 h
K562/Adr [3] = experiment: Potency index, ratio of etoposide IC50 to test compound IC50 for antiproliferative activity against human K562/ADM cells; assay type: functional
K562 [4] = experiment: Potency index, ratio of etoposide IC50 to test compound IC50 for antiproliferative activity against human K562 cells; assay type: functional
K562 [5] = experiment: Cytotoxicity against human K562 cells incubated for 72 hrs by CCK8 assay; assay type: functional, cell-based; conditions: K562, 72 h
K562/VCR = experiment: Cytotoxicity against human K562/VCR cells incubated for 72 hrs by CCK8 assay; assay type: functional, cell-based
[6] = Resistance index, ratio of IC50 for human K562/ADR cells to IC50 for human K562 cells; assay type: functional
K562/Adr [7] = experiment: Potency index, ratio of doxorubicin IC50 to compound IC50 for human K562/ADR cells; assay type: functional
K562/Adr [8] = experiment: Cytotoxicity against human K562/ADR cells incubated for 72 hrs by CCK8 assay; assay type: functional, cell-based
K562 [9] = experiment: Potency index, ratio of doxorubicin IC50 to compound IC50 for human K562 cells; assay type: functional
A549 [10] = experiment: Antiproliferative activity against human A549 cells incubated for 72 hrs by MTT assay; assay type: functional, cell-based; conditions: A549, 72 h
MCF7 [11] = experiment: Antiproliferative activity against human MCF7 cells incubated for 72 hrs by MTT assay; assay type: functional, cell-based; conditions: MCF7, 72 h
HepG2 [12] = experiment: Antiproliferative activity against human HepG2 cells incubated for 72 hrs by MTT assay; assay type: functional, cell-based; conditions: HepG2, 72 h
SK-OV-3 = experiment: Antiproliferative activity against human SK-OV-3 cells incubated for 72 hrs by MTT assay; assay type: functional, cell-based; conditions: SK-OV-3, 72 h
B16-F10 = experiment: Antiproliferative activity against mouse B16/F10 cells incubated for 72 hrs by MTT assay; assay type: functional, cell-based; conditions: B16-F10, 72 h
HeLa [13] = experiment: Antiproliferative activity against human HeLa cells incubated for 72 hrs by MTT assay; assay type: functional, cell-based
CT26 = experiment: Antiproliferative activity against […] cells incubated for 72 hrs by MTT assay; assay type: functional, cell-based; conditions: Mus musculus, CT26, 72 h
L02 [14] = experiment: Cytotoxicity against human HL7702 cells incubated for 48 hrs by MTT assay; assay type: cell-based; conditions: L02, 48 h
HepG2 [15] = experiment: Antiproliferative activity against human HepG2 cells incubated for 48 hrs by MTT assay; assay type: functional, cell-based; conditions: HepG2, 48 h
BGC-823 [16] = experiment: Antiproliferative activity against human BGC-823 cells incubated for 48 hrs by MTT assay; assay type: functional, cell-based; conditions: BGC-823, 48 h
A549 [17] = experiment: Antiproliferative activity against human A549 cells incubated for 48 hrs by MTT assay; assay type: functional, cell-based; conditions: A549, 48 h
MCF7 [18] = experiment: Cytotoxicity against human MCF7 cells by MTT assay; assay type: functional, cell-based
L02 [19] = experiment: Cytotoxicity against human L02 cells; assay type: cell-based
A549 [20] = experiment: Antiproliferative activity against human A549 cells incubated for 24 hrs by MTT assay; assay type: functional, cell-based; conditions: A549, 24 h
HeLa [21] = experiment: Antiproliferative activity against human HeLa cells incubated for 24 hrs by MTT assay; assay type: functional, cell-based
MCF7 [22] = experiment: Antiproliferative activity against human MCF7 cells incubated for 24 hrs by MTT assay; assay type: functional, cell-based; conditions: MCF7, 24 h
HepG2 [23] = experiment: Antiproliferative activity against human HepG2 cells incubated for 24 hrs by MTT assay; assay type: functional, cell-based; conditions: HepG2, 24 h
HeLa [24] = experiment: Antiproliferative activity against human HeLa cells by MTT assay; assay type: functional, cell-based
BGC-823 [25] = experiment: Antiproliferative activity against human BGC-823 cells incubated for 72 hrs by MTT assay; assay type: functional, cell-based; conditions: BGC-823, 72 h
MKN-45 = experiment: Antiproliferative activity against human MKN-45 cells incubated for 72 hrs by MTT assay; assay type: functional, cell-based; conditions: Homo sapiens, MKN-45, 72 h
HepG2 [26] = experiment: Antiproliferative activity against human HepG2 cells incubated for 3 days by MTT assay; assay type: functional, cell-based; conditions: HepG2, 72 h
HCT-116 = experiment: Antiproliferative activity against human HCT116 cells incubated for 3 days by MTT assay; assay type: functional, cell-based; conditions: HCT-116, 72 h
A549 [27] = experiment: Antiproliferative activity against human A549 cells incubated for 3 days by MTT assay; assay type: functional, cell-based; conditions: A549, 72 h
Calu-1 = experiment: Antiproliferative activity against human Calu-1 cells incubated for 24 hrs by MTT assay; assay type: functional, cell-based; conditions: Calu-1, 24 h
Vero = experiment: Cytotoxicity against African green monkey Vero cells; assay type: cell-based; conditions: Chlorocebus sabaeus
K562/A02 = experiment: Cytotoxicity against human K562/A02 cells by SRB assay; assay type: functional, cell-based

SMILES: COc1cc([C@@H]2c3cc4c(cc3[C@H](OCC(=O)N3C(=O)C(=O)c5c(Br)cccc53)[C@H]3COC(=O)[C@H]23)OCO4)cc(OC)c1OC
- IC50 (K562/Adr [1]): 19 nM
- IC50 (K562 [2]): 19 nM
- Ratio IC50 (K562/Adr [3]): 8.8
- Ratio IC50 (K562 [4]): 8.8

SMILES: COc1cc([C@@H]2c3cc4c(cc3[C@H](OC(=O)c3ccc5[nH]ccc5c3)[C@H]3COC(=O)[C@H]23)OCO4)cc(OC)c1OC
- IC50 (K562 [5]): 81 nM
- IC50 (K562/VCR): 81 nM

SMILES: COc1ccc(/C=C/C(=O)O[C@@H]2c3cc4c(cc3[C@@H](c3cc(OC)c(OC)c(OC)c3)[C@H]3C(=O)OC[C@@H]32)OCO4)cc1OC
- Ratio IC50 [6]: 1.1
- Ratio IC50 (K562/Adr [7]): 2.2
- IC50 (K562/Adr [8]): 11 nM
- IC50 (K562 [5]): 11 nM
- Ratio IC50 (K562 [9]): 2.2

SMILES: COc1ccc(-c2coc3cc(OCCCCC(=O)O[C@@H]4c5cc6c(cc5[C@@H](c5cc(OC)c(OC)c(OC)c5)[C@H]5C(=O)OC[C@@H]54)OCO6)ccc3c2=O)cc1
- IC50 (A549 [10]): 213 nM
- IC50 (MCF7 [11]): 213 nM
- IC50 (HepG2 [12]): 213 nM
- IC50 (SK-OV-3): 213 nM
- IC50 (B16-F10): 213 nM
- IC50 (HeLa [13]): 213 nM
- IC50 (CT26): 213 nM

SMILES: COc1cc([C@@H]2c3cc4c(cc3[C@@H](Sc3nc(N)nc5nc[nH]c35)[C@H]3COC(=O)[C@H]23)OCO4)cc(OC)c1OC
- IC50 (L02 [14]): 300 nM
- IC50 (HepG2 [15]): 300 nM
- IC50 (BGC-823 [16]): 300 nM
- IC50 (A549 [17]): 300 nM

SMILES: COc1cc([C@@H]2c3cc4c(cc3[C@@H](OC(=O)/C=C/c3ccc([N+](=O)[O-])cc3)[C@H]3COC(=O)[C@H]23)OCO4)cc(OC)c1OC
- Ratio IC50 [6]: 1.1
- Ratio IC50 (K562/Adr [7]): 2.2
- IC50 (K562/Adr [8]): 11 nM
- IC50 (K562 [5]): 11 nM
- Ratio IC50 (K562 [9]): 2.2

SMILES: COc1cc([C@@H]2c3cc4c(cc3[C@@H](OCc3cn([C@@H]5O[C@H](COC(C)=O)[C@H](OC(C)=O)[C@H](OC(C)=O)[C@H]5OC(C)=O)nn3)[C@H]3COC(=O)[C@H]23)OCO4)cc(OC)c1OC
- IC50 (MCF7 [18]): 1250 nM

SMILES: COc1cc([C@@H]2c3cc4c(cc3[C@H](OC(=O)CSc3nnc(-c5ccc(Br)cc5)o3)[C@H]3COC(=O)[C@H]23)OCO4)cc(OC)c1OC
- IC50 (L02 [19]): 79600 nM
- IC50 (A549 [20]): 2540 nM
- IC50 (HeLa [21]): 2540 nM
- IC50 (MCF7 [22]): 2540 nM
- IC50 (HepG2 [23]): 2540 nM

SMILES: COc1ccc(-c2coc3cc(OCC(=O)O[C@@H]4c5cc6c(cc5[C@@H](c5cc(OC)c(OC)c(OC)c5)[C@H]5C(=O)OC[C@@H]54)OCO6)ccc3c2=O)cc1
- IC50 (A549 [10]): 213 nM
- IC50 (MCF7 [11]): 213 nM
- IC50 (HepG2 [12]): 213 nM
- IC50 (SK-OV-3): 213 nM
- IC50 (B16-F10): 213 nM
- IC50 (HeLa [13]): 213 nM
- IC50 (CT26): 213 nM

SMILES: COc1cc([C@@H]2c3cc4c(cc3[C@@H](OC(=O)/C=C/c3ccco3)[C@H]3COC(=O)[C@H]23)OCO4)cc(OC)c1OC
- Ratio IC50 [6]: 1.1
- Ratio IC50 (K562/Adr [7]): 2.2
- IC50 (K562/Adr [8]): 11 nM
- IC50 (K562 [5]): 11 nM
- Ratio IC50 (K562 [9]): 2.2

SMILES: COc1ccc2c(c1)cc(/C=N/[C@@H]1c3cc4c(cc3[C@@H](c3cc(OC)c(OC)c(OC)c3)[C@H]3C(=O)OC[C@@H]31)OCO4)n2Cc1ccccc1F
- IC50 (HeLa [24]): 650 nM

SMILES: CC1=C(/C=C/C(C)=C/C=C/C(C)=C/C(O)O)C(C)(C)CCC1
- IC50 (BGC-823 [25]): 83100 nM
- IC50 (MKN-45): 88500 nM

SMILES: COc1cc([C@@H]2c3cc4c(cc3[C@@H](N)[C@H]3COC(=O)[C@H]23)OCO4)cc(OC)c1OC [4BETA-NH2-PODOPHYLLOTOXIN]
- IC50 (HepG2 [26]): 100 nM
- IC50 (HCT-116): 100 nM
- IC50 (A549 [27]): 100 nM

SMILES: COc1ccc(/C=C\c2cc(OC)c(OC)c(OC)c2)cc1O [COMBRETASTATIN A4]
- IC50 (L02 [19]): 4230 nM
- IC50 (A549 [20]): 2780 nM
- IC50 (HeLa [21]): 2780 nM
- IC50 (MCF7 [22]): 3450 nM
- IC50 (Calu-1): 2780 nM
- IC50 (Vero): 2560 nM
- IC50 (HepG2 [23]): 3450 nM

SMILES: COc1cccc2c1C(=O)c1c(O)c3c(c(O)c1C2=O)C[C@@](O)(C(=O)CO)C[C@@H]3O[C@H]1C[C@H](N)[C@H](O)[C@H](C)O1 [DOXORUBICIN]
- IC50 (K562/Adr [8]): 220 nM
- GI50 (K562/A02): 14300 nM
